Measured values: patent US20110039721A1, “METHOD FOR PREDICTION ABOUT CARCINOGENICITY OF SUBSTANCE IN RODENT” (Chemicals Evaluation and Research Institute, priority 2007, published 2011)

Experiments:
[1] = tested on: mRNA expressed from the genes (A) to (D) in rat liver; experiment: Behavior of genes (mRNA expression level, oligo-DNA microarray) in rat liver after 28-day oral administration; type: in vivo; conditions: mRNA vs vehicle control group
Summary of the method: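 Liver mRNA levels were compared with matched vehicle groups, with a shift of at least 1.5-fold up or down deemed significant unless its direction disagreed with other carcinogens. Test substances were dosed orally by gavage daily for 28 days to 5-week-old male F344 rats, four per group.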

liver = conditions: classification of the substance (Cr+/Cr−); cited from earlier work
rodent = conditions: classification of the substance (C+/C−); cited from earlier work
[2] = classification of the substance (M+/M−); cited from earlier work
[3] = gene group (A), Unigene No. Rn.167075
[4] = gene group (C), Unigene No. Rn.120914

With `CCN(N=O)C(N)=O` [TS050, N-Ethyl-N-nitrosourea] the “Behavior of gene caused by administration of chemical substance, Gene No. 4846” value ([1]; gene group (A), Unigene No. Rn.144554) was “−”, the “Behavior of gene caused by administration of chemical substance, Gene No. 2026” value [1, 3] was “−” and the “Behavior of gene caused by administration of chemical substance, Gene No. 4218” value [1, 3] was “−”. The “Behavior of gene caused by administration of chemical substance, Gene No. 6182” value ([1]; gene group (A), Unigene No. Rn.5834) was “+”, the “Behavior of gene caused by administration of chemical substance, Gene No. 5600” value ([1]; gene group (A), Unigene No. Rn.9836) was “−” and the “Behavior of gene caused by administration of chemical substance, Gene No. 1494” value ([1]; gene group (B), Unigene No. Rn.1430) was “−”. For the same compound, the “Behavior of gene caused by administration of chemical substance, Gene No. 2045” value ([1]; gene group (B), Unigene No. Rn.19329) was “−”, the “Behavior of gene caused by administration of chemical substance, Gene No. 2203” value ([1]; gene group (B), Unigene No. Rn.21240) was “−” and the “Behavior of gene caused by administration of chemical substance, Gene No. 533” value ([1]; gene group (C), Unigene No. Rn.106184) was “−”. For the same compound, the “Behavior of gene caused by administration of chemical substance, Gene No. 725” value ([1]; gene group (C), Unigene No. Rn.108075) was “−”, the “Behavior of gene caused by administration of chemical substance, Gene No. 1163” value ([1]; gene group (C), Unigene No. Rn.11766) was “−” and the “Behavior of gene caused by administration of chemical substance, Gene No. 4973” value ([1]; gene group (C), Unigene No. Rn.118529) was “−”. For the same compound, the “Behavior of gene caused by administration of chemical substance, Gene No. 4095” value ([1]; gene group (C), Unigene No. Rn.119024) was “−”, the “Behavior of gene caused by administration of chemical substance, Gene No. 1334” value [1, 4] was “−” and the “Behavior of gene caused by administration of chemical substance, Gene No. 6620” value [1, 4] was “−”. For the same compound, the “Behavior of gene caused by administration of chemical substance, Gene No. 6303” value ([1]; gene group (C), Unigene No. Rn.123063) was “+”, the “Behavior of gene caused by administration of chemical substance, Gene No. 5878” value ([1]; gene group (C), Unigene No. Rn.143213) was “−” and the “Behavior of gene caused by administration of chemical substance, Gene No. 1131” value ([1]; gene group (C), Unigene No. Rn.144946) was “−”. For the same compound, the “Behavior of gene caused by administration of chemical substance, Gene No. 1562” value ([1]; gene group (C), Unigene No. Rn.14744) was “−”, the “Behavior of gene caused by administration of chemical substance, Gene No. 1741” value ([1]; gene group (C), Unigene No. Rn.1647) was “−” and the “Behavior of gene caused by administration of chemical substance, Gene No. 893” value ([1]; gene group (C), Unigene No. Rn.164817) was “−”. For the same compound, the “Behavior of gene caused by administration of chemical substance, Gene No. 6026” value ([1]; gene group (C), Unigene No. Rn.167685) was “−”, the “Behavior of gene caused by administration of chemical substance, Gene No. 154” value ([1]; gene group (C), Unigene No. Rn.185941) was “−” and the “Behavior of gene caused by administration of chemical substance, Gene No. 1993” value ([1]; gene group (C), Unigene No. Rn.18728) was “−”. The “Behavior of gene caused by administration of chemical substance, Gene No. 813” value ([1]; gene group (C), Unigene No. Rn.201760) was “−”, the “Behavior of gene caused by administration of chemical substance, Gene No. 2494” value ([1]; gene group (C), Unigene No. Rn.23969) was “−” and the “Behavior of gene caused by administration of chemical substance, Gene No. 2546” value ([1]; gene group (C), Unigene No. Rn.24561) was “−”. For the same compound, the “Behavior of gene caused by administration of chemical substance, Gene No. 3776” value ([1]; gene group (C), Unigene No. Rn.43232) was “−”, the “Behavior of gene caused by administration of chemical substance, Gene No. 3929” value ([1]; gene group (C), Unigene No. Rn.4620) was “−” and the “Behavior of gene caused by administration of chemical substance, Gene No. 1119” value ([1]; gene group (C), Unigene No. Rn.9757) was “−”. For the same compound, the “Behavior of gene caused by administration of chemical substance, Gene No. 6742” value ([1]; gene group (C), Unigene No. Rn.9779) was “−”, the “Behavior of gene caused by administration of chemical substance, Gene No. 5634” value ([1]; gene group (C), Unigene No. Rn.9862) was “−” and the “Behavior of gene caused by administration of chemical substance, Gene No. 5726” value ([1]; gene group (D), Unigene No. Rn.9939) was “+”. The Liver carcinogenicity (liver) was “Cr−”, the Carcinogenicity (rodent) was “C+” and the “Mutagenicity by Ames test” value [2] was “M+”.
